Consider 14 compounds from patent publication US8268772B2, “Depot preparations” (Symrise AG, priority 2001, dated 2012).

Series [1] is described as follows: Release rate during hair coloring (GC content after mixing developer mass with ammoniacal dye solution). The series is classed as physicochemical. The protocol:
To determine the hydrolysis rate the three depot preparations DP Example 8, DP Example 9 and DP Example 10 were added to the developer mass in a concentration of in each case 0.3%. The ammoniacal dye solution, which consists of 2 to 16% ammonia and/or substitutes such as, for example, alkanolamines, in particular monoethanolamine, water, thickeners, emulsifier, bodying agents, reactive dyes, solvents, flexing agents, stabilizers and preservatives, is then added to the developer mass in the ratio 1:1. Samples are then taken from the hair dye solution at defined time intervals, neutralized and extracted with solvent, and the content of depot preparation and released aldehyde is determined by means of gas chromatography using an internal and external standard.

Series [2] can be described thus: Storage stability in soap formulation. The series is classed as physicochemical. The settings on record: stored in the dark about one month at room temperature. From the text:
(§1) (Amount after storage/Amount before storage)*100%=Storage stability [%]
The separate samples are then divided into portions.
The soap formulations A to F were stored in the dark for about one-month at room temperature.

Series [3] in a line: Storage stability in powder laundry detergent. The note with it: after one month storage.
Text: The storage stability of a fragrance or of a depot preparation is defined by the percentage of substance still present after storage. (Amount after storage/Amount before storage)*100%=Storage stability [%]
For the determination and for the comparison of the storage stability the depot preparation (DP) consisting of one or more acylals and the corresponding aldehydes (AL) are incorporated into separate samples. (SDP and SAL) of the same formulation of a consumer product, such as, for example, laundry detergent, shampoo or soap. The separate samples are then divided into portions. One portion of the sample SDP and SAL is subjected immediately to a suitable extraction and analytical measurement in order to determine the amount of depot preparation or aldehyde prior to storage. In the analytical investigation by, for example, gas chromatography, a suitable standard is used for quantification. The second portion is subjected to storage at elevated temperature for a defined period and then extracted and quantified using the same methods.
The laundry detergents A and B were used for washing or examined analytically both directly and after storage for four weeks.
Series [4] in a line: Storage stability in hair colorant developer mass. The series is classed as physicochemical. How it is done: as §1
The formulation of the developer mass typically comprises water, hydrogen peroxide, acids, such as, for example, phosphoric acid, citric acid etc., thickeners, emulsifiers, preservatives, solvents and further auxiliaries. 1% of DP Example 5 is added to the formulation of the developer mass.
The developer formulation, which comprises 1% of DP Example 5, is stored for one and a half months at room temperature.

Setting [5] is: 1 min after mixing developer mass (0.3% each DP) 1:1 with ammoniacal dye solution.
[6] abbreviates: 5 min after mixing developer mass (0.3% each DP) 1:1 with ammoniacal dye solution.
[7] abbreviates: 10 min after mixing developer mass (0.3% each DP) 1:1 with ammoniacal dye solution.
The mark [8] stands for this setting: 20 min after mixing developer mass (0.3% each DP) 1:1 with ammoniacal dye solution.
Where [9] appears, read: 30 min after mixing developer mass (0.3% each DP) 1:1 with ammoniacal dye solution.

Turning to `CCCCCCCCCC(C)C=O` (stereo not shown) [2-Methylundecanal, reference compound], the “Relative GC content [%]” value in series [1] (setting [5]) is on record as 2.8%; in series [1] (setting [6]) it was 32.8%; in series [1] (setting [7]), 47.1%; in series [1] (setting [8]), 20.7%; in series [1] (setting [9]) it was 16.4%.
The corresponding values for `CCCCCCC=O` [Aldehyde C7, heptanal, reference compound] are 1.4%, 17.1%, 19.3%, 12.2% and 11.4%.
Regarding `CCCCCCCCCC=O` [Aldehyde C10, Decanal, reference compound], in series [2], the “Storage stability [%]” value turned out to be 32%.
On the same count and under the same terms, the result for `O=Cc1ccccc1` [Benzaldehyde, reference compound] reads 45%; that for `CC(C)(C)c1ccc(CCC=O)cc1` [Bourgeonal, 4-tert-Butyldihydrocinnamaldehyde, reference compound], 27%.
For `CCCC(=O)OC(OC(=O)CCC)C1CC=C(CCC=C(C)C)CC1` (stereo not shown) [DP Example 3, (Butyryloxy) [4-(4-methyl-3-pentenyl)-3-cyclohexen-1-yl]methyl butyrate], the Storage stability in series [3] stood at 93%.
In the case of `CCCC(=O)OC(OC(=O)CCC)c1ccccc1` [DP Example 5, (Butyryloxy)(phenyl)methyl butyrate], in series [4] (1% in developer mass, room temperature, 0 days), the “Stability [%] 0 days” value is on record as 100%. Further, the “Stability [%] 13 days” value in series [4] (1% in developer mass, room temperature, 13 days) was 100%. For the same compound, in series [4] (1% in developer mass, room temperature, 28 days), the “Stability [%] 28 days” value came to 98%. Also, the “Stability [%] 42 days” value in series [4] (1% in developer mass, room temperature, 42 days) is reported as 100%. In addition, the “color, odor and analytical stability” value in series [4] (developer mass, one and half months at room temperature) was “color, odor and analytically stable”. In series [2], the “Storage stability [%]” value was 93%.
Regarding `CCCC(=O)OC(CCc1ccc(C(C)(C)C)cc1)OC(=O)CCC` [DP Example 6, 3-(4-tert-Butylphenyl)-1-(butyryloxy)propyl butyrate], in series [2], the “Storage stability [%]” value worked out at 93%.
For the compound `CCCCCCCCCC(OC(=O)CCCCCC)OC(=O)CCCCCC` [DP Example 7, 1-(Heptanoyloxy)decyl heptanoate], the “Storage stability [%]” value in series [2] was 95%.
Regarding `CCCCCCC(OC(C)=O)OC(C)=O` [DP Example 8, 1-(Acetyloxy)heptyl acetate], the “Relative GC content [%]” value in series [1] (setting [5]) is reported as 22.9%; in series [1] (setting [6]), 0.0%; in series [1] (setting [7]) it was 0.0%; in series [1] (setting [8]) it was 0.0%; in series [1] (setting [9]), 0.0%.
Turning to `CC(=O)OC(OC(C)=O)C1CCC(C)=CC1C` (stereo not shown) [DP Example 9, (Acetyloxy)(2,4-dimethyl-3-cyclohexen-1-yl)methyl acetate], the “Relative GC content [%]” value in series [1] (setting [5]) came to 28.9%; in series [1] (setting [6]), 2.5%; in series [1] (setting [7]), 0.5%; in series [1] (setting [8]) it was 0.0%; in series [1] (setting [9]), 0.0%.
`CCCCCCCCCC(C)C(OC(C)=O)OC(C)=O` (stereo not shown) [DP Example 10, 1-(Acetyloxy)-2-methylundecyl acetate]: the “Relative GC content [%]” value in series [1] (setting [5]) came to 48.2%; in series [1] (setting [6]) it was 5.1%; in series [1] (setting [7]), 2.0%; in series [1] (setting [8]) it was 0.0%; in series [1] (setting [9]) it was 0.0%.
Consider `CC1=CC(C)C(C=O)CC1` (stereo not shown) [Vertocitral, reference compound], for which the “Relative GC content [%]” value in series [1] (setting [5]) was determined as 2.1%; in series [1] (setting [6]), 33.6%; in series [1] (setting [7]), 33.6%; in series [1] (setting [8]) it was 19.3%; in series [1] (setting [9]), 15.7%.
Regarding `CC(C)=CCCC1=CCC(C=O)CC1` (stereo not shown) [Vertomugal, 1-Formyl-4-(4-methyl-3-pentenyl)-3-cyclohexene, reference compound], the Storage stability in series [3] stood at 34%.
